Measurements published in patent US10039753B2, “Imidazo[4,5-c]quinoline and imidazo[4,5-c][1,5]naphthyridine derivatives as LRRK2 inhibitors” (Pfizer Inc., priority 2015, dated 2018).
Values belong to the molecule of their own block, whether it stands above or below them.

Assays:
[1] = biological target: T1, GST-tagged truncated LRRK2 (Homo sapiens, UniProt Q5S007); test: LRRK2 Assay, Format 1 (Lantha Screen), WT; type: biochemical; conditions: Format 1, wild-type LRRK2; geometric mean of 2-4 determinations unless footnoted (a: ≥5 determinations; b: single determination; c: determined on trifluoroacetate salt)
T1 construct: GST-tagged truncated LRRK2 from Invitrogen (Cat # PV4874); GST; purchased Invitrogen PV4874
Method in brief: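 Kinase activity measured by TR-FRET: GST-tagged truncated LRRK2 (4 μg/mL working solution) reacted with fluorescein-labeled LRRKtide (ERM-based peptide) across a compound dose response for 2 h at room temperature. Reaction stopped with EDTA-containing detection buffer (20 mM Tris pH 7.6) holding 2 nM terbium anti-phospho-ERM antibody.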

[2] = system: kinase selectivity mini-panel; test: Kinase selectivity (mini-panel), further assay run, Table 5A; type: biochemical; conditions: 1 mM ATP, 1 μM drug concentration; for percent inhibition of ABL: kinase ABL; for percent inhibition of AKT: kinase AKT; for percent inhibition of AURA: kinase AURA; for percent inhibition of BTK: kinase BTK; for percent inhibition of CDK2_CyclinA: kinase CDK2_CyclinA; for percent inhibition of CHK1: kinase CHK1; for percent inhibition of CHK2: kinase CHK2; for percent inhibition of CKIIa′: kinase CKIIa′; for percent inhibition of CKIa: kinase CKIa; for percent inhibition of CaMKIIa: kinase CaMKIIa; for percent inhibition of EGFR: kinase EGFR; for percent inhibition of ERK2: kinase ERK2; for percent inhibition of EphA2: kinase EphA2; for percent inhibition of FGFR1: kinase FGFR1; for percent inhibition of GSK3b: kinase GSK3b; for percent inhibition of HGFR: kinase HGFR; for percent inhibition of IRAK4: kinase IRAK4; for percent inhibition of IRK: kinase IRK; for percent inhibition of JAK3: kinase JAK3; for percent inhibition of KDR (VEGF): kinase KDR (VEGF); for percent inhibition of LCK: kinase LCK; for percent inhibition of MARK1: kinase MARK1; for percent inhibition of MK2: kinase MK2; for percent inhibition of MLCK_sk: kinase MLCK_sk; for percent inhibition of MST2: kinase MST2; for percent inhibition of MST4: kinase MST4; for percent inhibition of PAK4: kinase PAK4; for percent inhibition of PDK1: kinase PDK1; for percent inhibition of PIM2: kinase PIM2; for percent inhibition of PKACa: kinase PKACa; for percent inhibition of PRKCB2: kinase PRKCB2; for percent inhibition of ROCKI: kinase ROCKI; for percent inhibition of SGK: kinase SGK; for percent inhibition of SRC: kinase SRC; for percent inhibition of TAO2: kinase TAO2; for percent inhibition of TIE2: kinase TIE2; for percent inhibition of TRKA: kinase TRKA; for percent inhibition of ZC1 (HGK): kinase ZC1 (HGK); for percent inhibition of p38: kinase p38
Method: The compounds were run using a commercially available kinase selectivity assay which is available from CarnaBio USA, Inc. 209 West Central St., Suite 307, Natick, Mass. 01760 USA. The compounds of Examples 3, 4, 5 and 22 were run in the assay at a concentration of 1 μM using an ATP concentration of 1 mM.

mutant G2019S LRRK2 = mutant G2019S LRRK2 (Homo sapiens, UniProt Q5S007, G2019S); test: LRRK2 Assay, Format 1 (Lantha Screen), G2019S mutant
mutant G2019S LRRK2, sequence (Q5S007 970-2527 G2019S limits assumed): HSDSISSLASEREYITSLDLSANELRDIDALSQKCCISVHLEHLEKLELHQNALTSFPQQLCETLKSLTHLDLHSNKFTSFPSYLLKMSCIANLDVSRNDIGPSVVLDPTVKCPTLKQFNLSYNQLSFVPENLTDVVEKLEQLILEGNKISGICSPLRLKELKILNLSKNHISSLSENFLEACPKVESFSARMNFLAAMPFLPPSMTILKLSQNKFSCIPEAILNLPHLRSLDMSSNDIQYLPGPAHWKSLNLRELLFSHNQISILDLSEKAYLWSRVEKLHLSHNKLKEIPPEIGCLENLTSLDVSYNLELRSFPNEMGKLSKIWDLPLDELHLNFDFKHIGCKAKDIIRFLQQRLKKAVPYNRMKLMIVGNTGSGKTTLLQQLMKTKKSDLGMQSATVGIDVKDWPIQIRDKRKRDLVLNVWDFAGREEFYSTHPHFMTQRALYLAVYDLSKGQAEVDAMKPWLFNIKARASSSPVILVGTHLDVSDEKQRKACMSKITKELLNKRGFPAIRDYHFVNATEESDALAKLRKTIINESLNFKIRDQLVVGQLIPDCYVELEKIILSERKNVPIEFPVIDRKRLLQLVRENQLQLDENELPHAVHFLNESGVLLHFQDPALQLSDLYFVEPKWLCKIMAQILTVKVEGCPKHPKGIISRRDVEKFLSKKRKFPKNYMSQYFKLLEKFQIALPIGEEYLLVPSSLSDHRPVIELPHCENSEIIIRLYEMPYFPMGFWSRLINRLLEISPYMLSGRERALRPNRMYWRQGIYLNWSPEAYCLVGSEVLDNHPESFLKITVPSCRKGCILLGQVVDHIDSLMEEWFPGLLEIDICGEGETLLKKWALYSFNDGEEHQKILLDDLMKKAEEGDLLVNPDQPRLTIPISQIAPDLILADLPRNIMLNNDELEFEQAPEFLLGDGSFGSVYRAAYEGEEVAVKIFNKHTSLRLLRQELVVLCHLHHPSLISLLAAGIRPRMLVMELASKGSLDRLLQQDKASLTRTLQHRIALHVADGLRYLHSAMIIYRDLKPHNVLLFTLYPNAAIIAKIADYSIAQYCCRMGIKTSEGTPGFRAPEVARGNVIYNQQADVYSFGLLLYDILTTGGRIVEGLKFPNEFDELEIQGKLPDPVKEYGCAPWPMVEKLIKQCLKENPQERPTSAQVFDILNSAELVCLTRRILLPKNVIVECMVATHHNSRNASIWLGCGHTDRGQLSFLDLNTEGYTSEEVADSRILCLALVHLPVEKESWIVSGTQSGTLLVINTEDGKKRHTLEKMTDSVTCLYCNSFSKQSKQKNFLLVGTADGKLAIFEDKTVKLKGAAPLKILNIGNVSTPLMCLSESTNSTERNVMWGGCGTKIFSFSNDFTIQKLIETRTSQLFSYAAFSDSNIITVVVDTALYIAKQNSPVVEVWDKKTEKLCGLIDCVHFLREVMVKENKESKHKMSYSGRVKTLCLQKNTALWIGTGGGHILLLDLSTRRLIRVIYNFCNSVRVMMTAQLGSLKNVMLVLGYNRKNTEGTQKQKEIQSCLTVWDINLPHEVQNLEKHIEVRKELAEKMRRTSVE
Method: LRRK2 kinase activity was measured using Lantha Screen technology from Invitrogen. GST-tagged truncated LRRK2 from Invitrogen (Cat # PV4874) was incubated with a fluorescein-labeled peptide substrate based upon ezrin/radixin/moesin (ERM), also known as LRRKtide (Invitrogen cat # PR8976A), in the presence of a dose response of compound. Upon completion, the assay was stopped and detected with a terbium labeled anti-phospho-ERM antibody (Invitrogen, cat # PR8975A). […] Aliquots (3.5 μL) of the 100% DMSO dose response were mixed with 46.5 μL water then 1 μL of this mixture was added to the 3 μL substrate mix in the 384-well plate. The kinase reaction was started with 3 μL of a working solution of LRRK2 enzyme at a concentration of 4 μg/mL. […] The reaction was allowed to progress at room temperature for two hours and then stopped with the addition of 7 μL of detection buffer (20 mM Tris pH 7.6, 0.01% NP-40, 0.02% NaN3, 6 mM EDTA with 2 nM terbium labeled anti-phospho-ERM).
All final concentrations of substrate ATP and enzyme were the same.

T1 sequence (Q5S007 970-2527 limits assumed): as the sequence (Q5S007 970-2527 G2019S limits assumed) above, with S1050G counted along it

IC50 [1]: 8.3 nM
percent inhibition of ABL [2]: −2.51%
percent inhibition of AKT [2]: 1.03%
percent inhibition of AURA [2]: 7.17%
percent inhibition of BTK [2]: 0.22%
percent inhibition of CDK2_CyclinA [2]: 8.08%
percent inhibition of CHK1 [2]: 8.15%
percent inhibition of CHK2 [2]: 2.72%
percent inhibition of CKIIa′ [2]: 4.36%
percent inhibition of CKIa [2]: 18.22%
percent inhibition of CaMKIIa [2]: 7.62%
percent inhibition of EGFR [2]: 3.07%
percent inhibition of ERK2 [2]: 4.54%
percent inhibition of EphA2 [2]: 0.85%
percent inhibition of FGFR1 [2]: 20.35%
percent inhibition of GSK3b [2]: 4.45%
percent inhibition of HGFR [2]: −5.99%
percent inhibition of IRAK4 [2]: 3.88%
percent inhibition of IRK [2]: 2.83%
percent inhibition of JAK3 [2]: −1.51%
percent inhibition of KDR (VEGF) [2]: 14.24%
percent inhibition of LCK [2]: 15.63%
percent inhibition of MARK1 [2]: 1.48%
percent inhibition of MK2 [2]: 3.04%
percent inhibition of MLCK_sk [2]: 3.07%
percent inhibition of MST2 [2]: 16.25%
percent inhibition of MST4 [2]: 1.29%
percent inhibition of PAK4 [2]: 3.85%
percent inhibition of PDK1 [2]: 4.87%
percent inhibition of PIM2 [2]: −0.54%
percent inhibition of PKACa [2]: −0.89%
percent inhibition of PRKCB2 [2]: 4.71%
percent inhibition of ROCKI [2]: 1.89%
percent inhibition of SGK [2]: 1.58%
percent inhibition of SRC [2]: 4.66%
percent inhibition of TAO2 [2]: 0.82%
percent inhibition of TIE2 [2]: 4.72%
percent inhibition of TRKA [2]: 11.84%
percent inhibition of ZC1 (HGK) [2]: −3.58%
percent inhibition of p38 [2]: 9.62%
IC50 (mutant G2019S LRRK2): 4.9 nM
SMILES: Cc1cc(Cc2nc3cnc4ccc(Cl)cc4c3n2[C@@H]2CCO[C@H](C)C2)no1 [Example 4, 8-Chloro-2-[(5-methyl-1,2-oxazol-3-yl)methyl]-1-[(2R,4R)-2-methyltetrahydro-2H-pyran-4-yl]-1H-imidazo[4,5-c]quinoline]

IC50 [1]: 4.6 nM
percent inhibition of ABL [2]: 1.3%
percent inhibition of AKT [2]: −3.11%
percent inhibition of AURA [2]: −0.59%
percent inhibition of BTK [2]: −1.9%
percent inhibition of CDK2_CyclinA [2]: 3.76%
percent inhibition of CHK1 [2]: 4.68%
percent inhibition of CHK2 [2]: 2.05%
percent inhibition of CKIIa′ [2]: 5.19%
percent inhibition of CKIa [2]: 8.85%
percent inhibition of CaMKIIa [2]: 1.1%
percent inhibition of EGFR [2]: −0.51%
percent inhibition of ERK2 [2]: 2.62%
percent inhibition of EphA2 [2]: 0.13%
percent inhibition of FGFR1 [2]: 12.6%
percent inhibition of GSK3b [2]: 3.4%
percent inhibition of HGFR [2]: −7.71%
percent inhibition of IRAK4 [2]: 1.85%
percent inhibition of IRK [2]: 1.53%
percent inhibition of JAK3 [2]: −0.03%
percent inhibition of KDR (VEGF) [2]: 15.08%
percent inhibition of LCK [2]: 17.19%
percent inhibition of MARK1 [2]: 3.46%
percent inhibition of MK2 [2]: −3.62%
percent inhibition of MLCK_sk [2]: 3.8%
percent inhibition of MST2 [2]: 14.89%
percent inhibition of MST4 [2]: 8.04%
percent inhibition of PAK4 [2]: −0.05%
percent inhibition of PDK1 [2]: 0.39%
percent inhibition of PIM2 [2]: −3.78%
percent inhibition of PKACa [2]: −8.79%
percent inhibition of PRKCB2 [2]: 9.78%
percent inhibition of ROCKI [2]: 0.07%
percent inhibition of SGK [2]: −0.06%
percent inhibition of SRC [2]: 2.47%
percent inhibition of TAO2 [2]: 0.55%
percent inhibition of TIE2 [2]: 2.53%
percent inhibition of TRKA [2]: 12.31%
percent inhibition of ZC1 (HGK) [2]: −0.79%
percent inhibition of p38 [2]: 5.64%
IC50 (mutant G2019S LRRK2): 2.7 nM
SMILES: Cc1nc(Cc2nc3cnc4ccc(Cl)cc4c3n2[C@@H]2CCO[C@H](C)C2)no1 [Example 5, 8-Chloro-2-[(5-methyl-1,2,4-oxadiazol-3-yl)methyl]-1-[(2R,4R)-2-methyltetrahydro-2H-pyran-4-yl]-1H-imidazo[4,5-c]quinoline]

IC50 [1]: 3.4 nM
percent inhibition of ABL [2]: 5.06%
percent inhibition of AKT [2]: 2.25%
percent inhibition of AURA [2]: 9.46%
percent inhibition of BTK [2]: 1.63%
percent inhibition of CDK2_CyclinA [2]: 10.91%
percent inhibition of CHK1 [2]: 9.08%
percent inhibition of CHK2 [2]: 4.45%
percent inhibition of CKIIa′ [2]: 3.12%
percent inhibition of CKIa [2]: 10.68%
percent inhibition of CaMKIIa [2]: 3.76%
percent inhibition of EGFR [2]: 2.76%
percent inhibition of ERK2 [2]: 4.69%
percent inhibition of EphA2 [2]: 0.7%
percent inhibition of FGFR1 [2]: 21.95%
percent inhibition of GSK3b [2]: 3.91%
percent inhibition of HGFR [2]: −3.76%
percent inhibition of IRAK4 [2]: 4.95%
percent inhibition of IRK [2]: 0.67%
percent inhibition of JAK3 [2]: −0.46%
percent inhibition of KDR (VEGF) [2]: 29%
percent inhibition of LCK [2]: 9.31%
percent inhibition of MARK1 [2]: 1.52%
percent inhibition of MK2 [2]: −1.14%
percent inhibition of MLCK_sk [2]: 4.74%
percent inhibition of MST2 [2]: 23.23%
percent inhibition of MST4 [2]: 10.29%
percent inhibition of PAK4 [2]: 4.23%
percent inhibition of PDK1 [2]: 8.16%
percent inhibition of PIM2 [2]: 4.47%
percent inhibition of PKACa [2]: 5.23%
percent inhibition of PRKCB2 [2]: −0.76%
percent inhibition of ROCKI [2]: 6.94%
percent inhibition of SGK [2]: 4.89%
percent inhibition of SRC [2]: 1.86%
percent inhibition of TAO2 [2]: 5.98%
percent inhibition of TIE2 [2]: 5.85%
percent inhibition of TRKA [2]: 13.01%
percent inhibition of ZC1 (HGK) [2]: 2.87%
percent inhibition of p38 [2]: 7.19%
IC50 (mutant G2019S LRRK2): 2.6 nM
SMILES: Cc1cn(Cc2nc3cnc4ccc(Cl)cc4c3n2[C@@H]2CCO[C@H](C)C2)nn1 [Example 11, 8-Chloro-1-[(2R,4R)-2-methyltetrahydro-2H-pyran-4-yl]-2-[(4-methyl-1H-1,2,3-triazol-1-yl)methyl]-1H-imidazo[4,5-c]quinoline]
